In PMC8880268, “Magnolol and Luteolin Inhibition of α-Glucosidase Activity: Kinetics and Type of Interaction Detected by In Vitro and In Silico Studies” (Pharmaceuticals, 2022):
Entries after “also recorded” stand apart in the source; their conditions may differ. Where two headings read alike, the source gives them in different places.

How the values were obtained:
[1] = biological target: T1, α-glucosidase (Saccharomyces cerevisiae, UniProt P38158); test: Yeast α-glucosidase inhibitory assay (pNPG substrate, absorbance 405 nm); format: biochemical; conditions: for reversibility of inhibition: plots v vs. [α-glucosidase] at different inhibitor concentrations; for IC50: 2 mM pNPG
T1 construct: purchased Merck KGaA, Darmstadt, Germany
Experimental: α-Glucosidase inhibitory activity was determined according to a previous method. Briefly, 0.1 mM PBS (pH 6.8) was used to dissolve α-glucosidase and pNPG. In detail, 80 μL of PBS or 80 μL of test sample were added to 96-well plates. Successively, 20 μL of enzyme (0.025–0.125 µM) were added to each well. Magnolol (10–100 μM) and luteolin (5–50 μM) were prepared in DMSO (<1% v/v). […] Each sample was incubated with α-glucosidase for 10 min at 37 °C. The reaction started by adding 200 μL of pNPG (2 mM). The absorbance values were detected at 405 nm for 60 min, using a PerkinElmer Victor Nivo microplate spectrophotometer (Waltham, MA, USA). The α-glucosidase activity in the absence of inhibitors was defined as 100%. The half-maximal inhibitory concentration (IC50) was estimated by plot of relative enzymatic activity vs. inhibitor concentration.

[2] = biological target: T1, α-glucosidase; test: Kinetic analysis of yeast α-glucosidase inhibition (Michaelis–Menten and Lineweaver–Burk plots); format: biochemical; conditions: for type of inhibition: Michaelis–Menten and Lineweaver–Burk plots; for Kcat of α-glucosidase: 0.075 µM α-glucosidase
Experimental: The type of enzyme inhibition exerted by inhibitors was evaluated from kinetic studies using different substrate concentrations (0.25–2.5 mM pNPG) applying Michaelis–Menten and Lineweaver–Burk plots. Inhibition constants (Ki) were determined by plots of the Y-intercept of the Lineweaver–Burk plot vs. inhibitor concentration.

[3] = biological target: T1, α-glucosidase; test: Inactivation kinetics, time course of α-glucosidase activity; format: biochemical; conditions: enzyme 0.075 µM, pNPG 2 mM
Experimental: The enzyme and substrate concentrations were 0.075 µM and 2 mM, respectively.

[4] = biological target: T1, α-glucosidase; test: Fluorescence quenching analysis and thermodynamic parameters; format: binding; conditions: for ΔG° (free energy change) / ΔH° (enthalpy change) / ∆S° (entropy change): Van ’t Hoff equation; for Ksv (Stern–Volmer quenching constant): pH 6.8, α-glucosidase 0.35 µM; for ΔH° (enthalpy change) / ∆S° (entropy change): 298–310 K; for number of binding sites: no temperature stated; for Kd: read-out: Ka (binding constant) (converted)
Experimental: The interaction of inhibitors with α-glucosidase was studied using the fluorescence quenching method. […] Measurements were made in the emission range of 300–450 nm, with an excitation of 280 nm, after 10 min of stabilization. The fluorescent spectra of α-glucosidase (0.35 µM) and each inhibitor (0–1.0 µM) were carried out at three different temperatures (298, 304, and 310 K) and the bandwidths were set at 5 nm for both emission and excitation slits. For each sample, three fluorescence spectra were acquired, and the blank was subtracted. The compound quenching mechanism was assessed using the Stern–Volmer equation: F0 / F = 1 + Ksv[Q] = 1 + Kq^.τo[Q], where F0 and F are the fluorescence measure in absence and in presence of different concentrations of quencher, respectively; Ksv is the Stern–Volmer quenching constant; Kq is the coefficient of quencher rate coefficient; τ0 is the life time of the excited state; and [Q] is the concentration of the quencher.
Further elaboration of the equilibrium within the free and bound molecules can be achieved through the analysis of the fluorescence emission data utilizing the following equation: log (F0 − F) / F = log Ka + n log [Q], which obtains the binding constant (Ka) and the number of binding sites per protein (n) for the enzyme-inhibitor system.
Thermodynamic spontaneity is an important factor in the study of protein-ligand interaction. A system tends not only toward a lower energy state (enthalpy, ΔH), but also according to a state of disorder (entropy, ΔS). Thermodynamic parameters were obtained according to the Van ’t Hoff equation and the plot of “log Ka vs. 1/T”. The trade-off between enthalpy (ΔH°) and entropy (ΔS°) is used to obtain the standard free energy variation (ΔG°).

[5] = biological target: T1, α-glucosidase; test: Non-radiation energy transfer (Förster resonance energy transfer) distance; format: binding; conditions: room temperature, pH 6.8, 0.35 µM
Experimental: The distance between magnolol and α-glucosidase was calculated according to the theory of Förster resonance energy transfer. To calculate the distance (r) between the donor and the acceptor, the emission wavelength of α-glucosidase was overlapped with the absorption band of the inhibitor. The fluorescence spectrum and the UV absorption spectrum of the inhibitor were collected in the wavelength range of 300–500 nm, at room temperature, pH 6.8, and at a concentration of 0.35 µM.

[6] = biological target: T1, α-glucosidase; test: Synchronous fluorescence spectra; conditions: pH 6.8, 298 K
Text: The application of this method allows the identification of conformational changes in proteins according to the spectroscopic behavior of the tyrosine and tryptophan residues. Synchronous fluorescence spectra were collected in the emission range of 260–320 nm. The difference between excitation and emission wavelength (Δλ) was established at 15 nm (tyrosine residues) or at 60 nm (tryptophan residues).

[7] = tested on: α-glucosidase; conditions: ref 19; cited from earlier work

T1 sequence (P38158 whole entry): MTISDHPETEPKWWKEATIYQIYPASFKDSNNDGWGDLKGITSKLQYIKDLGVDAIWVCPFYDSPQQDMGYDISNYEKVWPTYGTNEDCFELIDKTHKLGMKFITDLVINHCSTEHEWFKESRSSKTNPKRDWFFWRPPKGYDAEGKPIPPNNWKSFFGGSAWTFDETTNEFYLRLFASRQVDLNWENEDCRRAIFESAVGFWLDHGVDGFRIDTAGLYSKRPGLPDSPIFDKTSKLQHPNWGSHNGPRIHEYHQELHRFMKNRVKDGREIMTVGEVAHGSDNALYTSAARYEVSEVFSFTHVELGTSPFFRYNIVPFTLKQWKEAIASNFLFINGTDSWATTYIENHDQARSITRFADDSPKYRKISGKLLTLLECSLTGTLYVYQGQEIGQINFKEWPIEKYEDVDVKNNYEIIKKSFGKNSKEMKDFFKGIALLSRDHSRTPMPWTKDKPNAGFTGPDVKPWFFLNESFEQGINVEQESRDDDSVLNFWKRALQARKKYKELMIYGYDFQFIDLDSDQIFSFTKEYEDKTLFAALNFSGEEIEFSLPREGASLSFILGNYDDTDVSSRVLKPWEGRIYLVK

C[C@H]1O[C@H](O[C@H]2[C@H](O)[C@@H](O)[C@@H](O[C@H]3[C@H](O)[C@@H](O)C(O)O[C@@H]3CO)O[C@@H]2CO)[C@H](O)[C@@H](O)[C@@H]1N[C@H]1C=C(CO)[C@@H](O)[C@H](O)[C@H]1O (stereo partly drawn) [Acarbose, reference compound]
reversibility of inhibition [1]: reversible inhibition | type of inhibition [2]: competitive inhibitor | Kcat of α-glucosidase ([2]; inhibitor 200 µM): 2.83 ± 0.33 s⁻¹ | Vmax of α-glucosidase ([2]; inhibitor 200 µM, converted using the Lambert–Beer relationship): 12.7 ± 1.50 µM/min | Kcat of α-glucosidase ([2]; inhibitor 400 µM): 2.87 ± 0.39 s⁻¹ | Vmax of α-glucosidase ([2]; inhibitor 400 µM, converted using the Lambert–Beer relationship): 12.9 ± 1.70 µM/min | Kcat of α-glucosidase ([2]; inhibitor 800 µM): 2.77 ± 0.44 s⁻¹ | Vmax of α-glucosidase ([2]; inhibitor 800 µM, converted using the Lambert–Beer relationship): 12.4 ± 2.00 µM/min | Vmax of α-glucosidase ([2]; inhibitor 1600 µM): 0.120 ± 0.016 ΔΟD/min | Kcat of α-glucosidase ([2]; inhibitor 1600 µM): 2.66 ± 0.36 s⁻¹ | Vmax of α-glucosidase ([2]; inhibitor 1600 µM, converted using the Lambert–Beer relationship): 12.0 ± 1.60 µM/min | Kcat of α-glucosidase ([2]; inhibitor 3200 µM): 2.79 ± 0.67 s⁻¹ | Vmax of α-glucosidase ([2]; inhibitor 3200 µM, converted using the Lambert–Beer relationship): 12.5 ± 3.00 µM/min | Kcat of α-glucosidase ([2]; inhibitor 4000 µM): 3.12 ± 1.04 s⁻¹ | Vmax of α-glucosidase ([2]; inhibitor 4000 µM, converted using the Lambert–Beer relationship): 14.1 ± 4.70 µM/min | Inactivation rate constant K ([3]; inhibitor 200 µM): 2.76 ± 0.07 10^−4 s^−1 | Inactivation rate constant K ([3]; inhibitor 400 µM): 2.81 ± 0.07 10^−4 s^−1 | Inactivation rate constant K ([3]; inhibitor 800 µM): 2.83 ± 0.05 10^−4 s^−1 | Inactivation rate constant K ([3]; inhibitor 1600 µM): 2.84 ± 0.03 10^−4 s^−1 | Inactivation rate constant K ([3]; inhibitor 3200 µM): 2.85 ± 0.01 10^−4 s^−1 | Inactivation rate constant K ([3]; inhibitor 4000 µM): 2.85 ± 0.09 10^−4 s^−1 | Kq (bimolecular quenching constant) ([4]; 298 K): 3.75 ± 0.041 10^13 M^−1 s^−1 | n (number of binding sites) ([4]; 298 K): 1.77 | ΔG° (free energy change) ([4]; 298 K): 0.621 kcal/mol | Ksv (Stern–Volmer quenching constant) ([4]; 298 K): 3.75 ± 0.04 10^5 M^−1 | ΔH° (enthalpy change) [4]: -10.88 kcal/mol | ∆S° (entropy change) [4]: −161.47 J mol^−1K^−1 | Kq (bimolecular quenching constant) ([4]; 304 K): 1.89 ± 0.014 10^13 M^−1 s^−1 | n (number of binding sites) ([4]; 304 K): 1.38 | ΔG° (free energy change) ([4]; 304 K): 0.853 kcal/mol | Ksv (Stern–Volmer quenching constant) ([4]; 304 K): 1.89 ± 0.01 10^5 M^−1 | Kq (bimolecular quenching constant) ([4]; 310 K): 1.80 ± 0.020 10^13 M^−1 s^−1 | n (number of binding sites) ([4]; 310 K): 1.36 | ΔG° (free energy change) ([4]; 310 K): 1.09 kcal/mol | Ksv (Stern–Volmer quenching constant) ([4]; 310 K): 1.80 ± 0.02 10^5 M^−1 | number of binding sites [4]: approximately 1

C=CCc1ccc(O)c(-c2cc(CC=C)ccc2O)c1 [Magnolol, 5,5′-diallyl-biphenyl-2,2′-diol]
IC50 ([1]; IC50, α-glucosidase 0.025 × 10^−6 M): 28.3 ± 10.7 µM | IC50 ([1]; IC50, α-glucosidase 0.05 × 10^−6 M): 28.5 ± 11 µM | IC50 ([1]; IC50, α-glucosidase 0.075 × 10^−6 M): 32.6 ± 10.5 µM | IC50 ([1]; IC50, α-glucosidase 0.125 × 10^−6 M): 35.5 ± 10.2 µM | reversibility of inhibition [1]: reversible inhibition | IC50 ([1]; −Log IC50, α-glucosidase 0.05 × 10^−6 M): 28.2 µM | type of inhibition [2]: mixed-type antagonism | type of inhibition ([2]; listed as magnolol): mixed-type inhibition; also recorded: mixed-type inhibitor; also recorded: reversible mixed-type interaction | Kcat of α-glucosidase ([2]; inhibitor 10 µM): 3.59 ± 0.17 s⁻¹ | Vmax of α-glucosidase ([2]; inhibitor 10 µM, converted using the Lambert–Beer relationship): 16.2 ± 0.80 µM/min | Kcat of α-glucosidase ([2]; inhibitor 25 µM): 3.29 ± 0.15 s⁻¹ | Vmax of α-glucosidase ([2]; inhibitor 25 µM, converted using the Lambert–Beer relationship): 14.8 ± 0.70 µM/min | Kcat of α-glucosidase ([2]; inhibitor 50 µM): 2.86 ± 0.13 s⁻¹ | Vmax of α-glucosidase ([2]; inhibitor 50 µM, converted using the Lambert–Beer relationship): 12.9 ± 0.60 µM/min | Kcat of α-glucosidase ([2]; inhibitor 100 µM): 2.22 ± 0.29 s⁻¹ | Vmax of α-glucosidase ([2]; inhibitor 100 µM, converted using the Lambert–Beer relationship): 10.0 ± 1.30 µM/min | Inactivation rate constant K ([3]; inhibitor 10 µM): 2.78 ± 0.05 10^−4 s^−1 | Inactivation rate constant K ([3]; inhibitor 25 µM): 2.81 ± 0.03 10^−4 s^−1 | Inactivation rate constant K ([3]; inhibitor 50 µM): 2.81 ± 0.01 10^−4 s^−1 | Inactivation rate constant K ([3]; inhibitor 100 µM): 2.85 ± 0.08 10^−4 s^−1 | Kq (bimolecular quenching constant) ([4]; 298 K): 3.90 ± 0.007 10^13 M^−1 s^−1 | n (number of binding sites) ([4]; 298 K): 0.39 | Ksv (Stern–Volmer quenching constant) ([4]; 298 K): 3.89 ± 0.01 10^5 M^−1 | Kd ([4]; 298 K): 3.37 µM | ΔH° (enthalpy change) [4]: 9.376 kcal/mol | ∆S° (entropy change) [4]: 121.83 J mol^−1K^−1 | Kq (bimolecular quenching constant) ([4]; 304 K): 4.22 ± 0.011 10^13 M^−1 s^−1 | n (number of binding sites) ([4]; 304 K): 0.42 | ΔG° (free energy change) ([4]; 304 K): -0.523 kcal/mol | Ksv (Stern–Volmer quenching constant) ([4]; 304 K): 4.22 ± 0.01 10^5 M^−1 | Kd ([4]; 304 K): 2.2 µM | Kq (bimolecular quenching constant) ([4]; 310 K): 5.30 ± 0.022 10^13 M^−1 s^−1 | n (number of binding sites) ([4]; 310 K): 0.65 | ΔG° (free energy change) ([4]; 310 K): -0.349 kcal/mol | Ksv (Stern–Volmer quenching constant) ([4]; 310 K): 5.30 ± 0.02 10^5 M^−1 | Kd ([4]; 310 K): 1.82 µM | fluorescence quenching mechanism ([4]; based on Ksv and Kq values): static-dynamic quenching process | number of binding sites [4]: ~0.6 | calculated distance between inhibitor and α-glucosidase [5]: 2.06 nm | shift of synchronous fluorescence maximum ([6]; ∆λ = 15 nm (tyrosine residues)): red shift from 286 to 290 | shift of synchronous fluorescence maximum ([6]; ∆λ = 60 nm (tryptophan residues)): no modification

O=c1c(O)c(-c2ccc(O)cc2)oc2cc(O)cc(O)c12 [compound 1, kaempferol]
type of inhibition (inhibition kinetic assays) [7]: non-competitive inhibitors
